# Data reported in patent publication US20200270309A1, “MALEIMIDE GROUP-MODIFIED ANGIOGENESIS INHIBITOR HM-1 AND USE THEREOF” (NANJING ANJI BIOLOGICAL TECHNOLOGY CO., LTD, priority 2017, published 2020).
# Like-named read-outs stand apart in the source and are kept apart here. Peptide text beside a SMILES is read from it. * marks the point of attachment. Mal(CH2CH2O)6CH2CH2CO = O=C1C=CC(=O)N1CCOCCOCCOCCOCCOCCOCCC(=O)*; Hexanoyl(6-maleimido) = O=C1C=CC(=O)N1CCCCCC(=O)*; Propanoyl(3-maleimido) = O=C1C=CC(=O)N1CCC(=O)*; X40 = O=C1C=CC(=O)N1c1ccc(CCCCCCCCC(=O)*)cc1; X35 = O=C1C=CC(=O)N1CCOCCOCCOCCOCC(=O)*; X80 = O=C1C=CC(=O)N1c1ccccc1CCC(=O)*; X42 = O=C1C=CC(=O)N1CCOCCC(=O)*
# Assay: Half-lives and pharmacokinetic parameters of polypeptides vs HM-1
# Parameters: AUC0-∞: concentration or dose not given beside the values
# Conditions: in vivo
# [1] = read-out: T1/2β (half-life) (converted)
Structure (SMILES),AUC(0-inf) (read-out: AUC0-∞),clearance (read-out: CL (converted)),MRT inf (read-out: MRT0-∞),half-life [1],AUC(0-inf),MRT inf,clearance,half-life (T1/2β (half-life)),AUC0-∞
C[C@H](NC(=O)CNC(=O)[C@H](CCCNC(=N)N)NC(=O)CCN1C(=O)C=CC1=O)C(=O)N[C@@H](CC(=O)O)C(=O)N[C@@H](CCCNC(=N)N)C(=O)N[C@@H](C)C(=O)NCC(=O)NCC(=O)NCC(=O)NCC(=O)N[C@@H](CCCNC(=N)N)C(=O)NCC(=O)N[C@@H](CC(=O)O)C(=O)O [X2] ({Propanoyl(3-maleimido)}-RGADRAGGGGRGD-OH),27800 ± 7510 ng·h/mL,0.6 mL/min/kg,49.8 ± 9.73 h,34.51 ± 0.28 h,–,–,–,–,–
C[C@H](NC(=O)CNC(=O)[C@H](CCCNC(=N)N)NC(=O)CCOCCOCCOCCOCCOCCOCCN1C(=O)C=CC1=O)C(=O)N[C@@H](CC(=O)O)C(=O)N[C@@H](CCCNC(=N)N)C(=O)N[C@@H](C)C(=O)NCC(=O)NCC(=O)NCC(=O)NCC(=O)N[C@@H](CCCNC(=N)N)C(=O)NCC(=O)N[C@@H](CC(=O)O)C(=O)O [X85] ({Mal(CH2CH2O)6CH2CH2CO}-RGADRAGGGGRGD-OH),–,–,–,–,33100 ± 8520 ng·h/mL,59.1 ± 10.4 h,0.505 mL/min/kg,40.97 ± 0.26 h,–
C[C@H](NC(=O)CNC(=O)[C@H](CCCNC(=N)N)NC(=O)CCOCCN1C(=O)C=CC1=O)C(=O)N[C@@H](CC(=O)O)C(=O)N[C@@H](CCCNC(=N)N)C(=O)N[C@@H](C)C(=O)NCC(=O)NCC(=O)NCC(=O)NCC(=O)N[C@@H](CCCNC(=N)N)C(=O)NCC(=O)N[C@@H](CC(=O)O)C(=O)O [X50] (X42-RGADRAGGGGRGD-OH),26900 ± 7090 ng·h/mL,0.62 mL/min/kg,48.1 ± 14.2 h,33.33 ± 0.25 h,–,–,–,–,–
C[C@H](NC(=O)CNC(=O)[C@H](CCCNC(=N)N)NC(=O)COCCOCCOCCOCCN1C(=O)C=CC1=O)C(=O)N[C@@H](CC(=O)O)C(=O)N[C@@H](CCCNC(=N)N)C(=O)N[C@@H](C)C(=O)NCC(=O)NCC(=O)NCC(=O)NCC(=O)N[C@@H](CCCNC(=N)N)C(=O)NCC(=O)N[C@@H](CC(=O)O)C(=O)O [X70] (X35-RGADRAGGGGRGD-OH),–,–,–,–,28000 ± 8160 ng·h/mL,50.2 ± 10.5 h,0.595 mL/min/kg,34.76 ± 0.26 h,–

# The next lines start with the values.
AUC(0-inf) (read-out: AUC0-∞),clearance (read-out: CL (converted)),MRT inf (read-out: MRT0-∞),half-life [1],AUC(0-inf),MRT inf,clearance,half-life (T1/2β (half-life)),AUC0-∞,Structure (SMILES)
27900 ± 6880 ng·h/mL,0.597 mL/min/kg,50 ± 10.7 h,34.64 ± 0.3 h,–,–,–,–,–,CC(C)[C@H](NC(=O)[C@H](C)NC(=O)CNC(=O)[C@H](CCCNC(=N)N)NC(=O)CCN1C(=O)C=CC1=O)C(=O)N[C@@H](CC(=O)O)C(=O)N[C@@H](CCCNC(=N)N)C(=O)N[C@@H](C)C(=O)NCC(=O)NCC(=O)NCC(=O)NCC(=O)N[C@@H](CCCNC(=N)N)C(=O)NCC(=O)N[C@@H](CC(=O)O)C(=O)O [P9] ({Propanoyl(3-maleimido)}-RGAVDRAGGGGRGD-OH; C-terminus assumed)
–,–,–,–,29100 ± 7660 ng·h/mL,52 ± 13.5 h,0.573 mL/min/kg,36.04 ± 0.32 h,–,C[C@H](NC(=O)CNC(=O)[C@H](CCCNC(=N)N)NC(=O)CCc1ccccc1N1C(=O)C=CC1=O)C(=O)N[C@@H](CC(=O)O)C(=O)N[C@@H](CCCNC(=N)N)C(=O)N[C@@H](C)C(=O)NCC(=O)NCC(=O)NCC(=O)NCC(=O)N[C@@H](CCCNC(=N)N)C(=O)NCC(=O)N[C@@H](CC(=O)O)C(=O)O [X14] (X80-RGADRAGGGGRGD-OH)
–,–,–,38.89 ± 0.3 h,–,–,–,–,0.0319 ± 0.0076 mg/L/h,CC[C@H](C)[C@H](NC(=O)[C@H](Cc1c[nH]cn1)NC(=O)[C@H](CCC(N)=O)NC(=O)[C@H](CCCNC(=N)N)NC(=O)CCN1C(=O)C=CC1=O)C(=O)N[C@@H](Cc1ccccc1)C(=O)N1CCC[C@H]1C(=O)N[C@@H](CO)C(=O)N[C@@H](Cc1c[nH]c2ccccc12)C(=O)N[C@@H](Cc1c[nH]c2ccccc12)C(=O)N[C@@H](Cc1ccccc1)C(=O)N[C@@H](Cc1c[nH]c2ccccc12)C(=O)N[C@@H](Cc1ccc(O)cc1)C(=O)N[C@@H](Cc1ccc(O)cc1)C(=O)N1CCC[C@H]1C(=O)N[C@@H](CC(=O)O)C(=O)N[C@@H](CCCNC(=N)N)C(=O)N[C@@H](CC(C)C)C(=O)N[C@@H](CCCCN)C(=O)N[C@@H](CCSC)C(=O)N[C@@H](CCCNC(=N)N)C(=O)NCC(=O)N[C@@H](CC(=O)O)C(=O)O [P3] ({Propanoyl(3-maleimido)}-RQHIFPSWWFWYYPDRLKMRGD-OH; C-terminus assumed)
24600 ± 7030 ng·h/mL,0.677 mL/min/kg,44.1 ± 11 h,30.6 ± 0.31 h,–,–,–,–,–,CC(C)[C@H](NC(=O)[C@H](C)NC(=O)CNC(=O)[C@H](CCCNC(=N)N)NC(=O)CCCCCN1C(=O)C=CC1=O)C(=O)N[C@@H](CC(=O)O)C(=O)N[C@@H](CCCNC(=N)N)C(=O)N[C@@H](C)C(=O)NCC(=O)NCC(=O)NCC(=O)NCC(=O)N[C@@H](CCCNC(=N)N)C(=O)NCC(=O)N[C@@H](CC(=O)O)C(=O)O [P10] ({Hexanoyl(6-maleimido)}-RGAVDRAGGGGRGD-OH; C-terminus assumed)
–,–,–,–,26800 ± 8440 ng·h/mL,48 ± 11.6 h,0.622 mL/min/kg,33.26 ± 0.28 h,–,C[C@H](NC(=O)CNC(=O)[C@H](CCCNC(=N)N)NC(=O)CCCCCCCCc1ccc(N2C(=O)C=CC2=O)cc1)C(=O)N[C@@H](CC(=O)O)C(=O)N[C@@H](CCCNC(=N)N)C(=O)N[C@@H](C)C(=O)NCC(=O)NCC(=O)NCC(=O)NCC(=O)N[C@@H](CCCNC(=N)N)C(=O)NCC(=O)N[C@@H](CC(=O)O)C(=O)O [X44] (X40-RGADRAGGGGRGD-OH)
